Results as given in ChEMBL document CHEMBL1144892, “Synthesis and biological activity of various derivatives of a novel class of potent, selective, and orally active prostaglandin D2 receptor antagonists. 2. 6,6-Dimethylbicyclo[3.1.1]heptane derivatives” (J Med Chem, 2003).

Legend:
[1] = biological target: T1, Prostaglandin D2 receptor (Homo sapiens, UniProt Q13258); assay: Concentration required to inhibit the PGD-2 evoked cAMP formation in human platelets; format: functional
T1 sequence (Q13258 whole entry): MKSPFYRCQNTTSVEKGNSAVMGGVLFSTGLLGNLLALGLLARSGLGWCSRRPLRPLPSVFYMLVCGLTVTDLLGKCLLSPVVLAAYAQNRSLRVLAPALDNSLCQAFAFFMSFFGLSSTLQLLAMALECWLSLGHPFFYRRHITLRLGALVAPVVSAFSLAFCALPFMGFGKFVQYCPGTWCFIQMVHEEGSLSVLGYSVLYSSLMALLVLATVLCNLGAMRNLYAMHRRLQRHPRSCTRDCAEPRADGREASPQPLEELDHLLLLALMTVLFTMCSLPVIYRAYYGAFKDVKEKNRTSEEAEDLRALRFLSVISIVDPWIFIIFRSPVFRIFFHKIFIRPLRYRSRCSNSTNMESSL

Cavia porcellus [2] = assay: In vivo inhibition of antigen-induced increase in intranasal pressure in actively sensitized guinea pig administered perorally with 10 mg/Kg compound, 10 minutes before the antigen challenge; format: functional; settings: oral
[3] = biological target: T1, Prostaglandin D2 receptor; assay: Prostaglandin D2 receptor antagonist activity, evaluated by inhibition of [3H]PGD-2 binding to human platelet membranes
Cavia porcellus [4] = assay: In vivo inhibition of antigen-induced increase in intranasal pressure in actively sensitized guinea pig administered perorally with 3 mg/Kg compound, 10 minutes before the antigen challenge; format: functional; settings: inhaled or nasal
Cavia porcellus [5] = assay: Percent inhibition against increase in specific airway resistance by antigen inhalation in conscious guinea pig administered perorally with 10 mg/Kg of compound, 1 hr before the test; format: functional
Cavia porcellus [6] = assay: Effective dose required to inhibit conjuctival microvascular permeability caused by topical application of 0.1% PGD-2 in guinea pig administered perorally with compound, 1 hour before the test; format: functional
Cavia porcellus [7] = assay: Effective dose required to inhibit conjuctival microvascular permeability caused by topical application of 0.1% antigen in guinea pig administered perorally with compound, 1 hour before the test; format: functional
Cavia porcellus [8] = assay: In vivo inhibition of antigen-induced increase in intranasal pressure in actively sensitized guinea pig administered intravenously with 1 mg/Kg compound, 10 minutes before the antigen challenge; format: functional
Cavia porcellus [9] = assay: In vivo percent inhibition against antigen induced increase in intranasal pressure in actively sensitized guinea pig administered intravenously with 1 mg/Kg of compound; format: functional
Cavia porcellus [10] = assay: Percent inhibition against antigen induced increase in intranasal pressure in actively sensitized guinea pig administered intravenously with 1 mg/Kg of compound; format: functional
Cavia porcellus [11] = assay: Compound at 10 mg/kg was tested for the inhibition of increase in eosinophil number in nasal lavage fluid at 5 hr after intranasal antigen challenge in actively sensitized guinea pig; format: functional; settings: inhaled or nasal
Cavia porcellus [12] = assay: Compound at 10 mg/kg was tested for the inhibition of increase in eosinophil number in bronchoalveolar lavage fluid at 72 hr after inhalation of aerosol antigen in actively sensitized guinea pig; format: functional; settings: Lung, inhaled or nasal

SMILES	IC50 [1]	IC50 [3]	also measured
CC1(C)[C@H]2C[C@H](C/C=C/CCCC(=O)O)[C@@H](NC(=O)c3csc4ccccc34)[C@@H]1C2	22 nM	32 nM	inhibition in vivo at 10 mg/kg (Cavia porcellus [2]): 82%
Cn1ccc(C(=O)N[C@@H]2[C@@H](C/C=C/CCCC(=O)O)C[C@H]3C[C@@H]2C3(C)C)c1	110 nM	420 nM	–
CC1(C)[C@H]2C[C@H](C/C=C/CCCC(=O)O)[C@@H](NC(=O)c3csc4ccc(F)cc34)[C@@H]1C2	3.2 nM	0.42 nM	inhibition in vivo at 3 mg/kg (Cavia porcellus [4]): 86%; Inhibition (Cavia porcellus [5]): 69%; ED50 (Cavia porcellus [6]): 3.5 mg/kg; ED50 (Cavia porcellus [7]): 8.9 mg/kg
CC1(C)[C@H]2C[C@H](NC(=O)c3ccc(-c4ccccc4)cc3)[C@@H](C/C=C\CCCC(=O)O)[C@@H]1C2	> 1000 nM	5100 nM	–
CC1(C)[C@H]2C[C@@H](NC(=O)c3ccc(-c4ccccc4)cc3)[C@H](C/C=C\CCCC(=O)O)[C@@H]1C2	> 1000 nM	3600 nM	–
CC1(C)[C@H]2C[C@H](C/C=C/CCCC(=O)O)[C@@H](NC(=O)c3cc4ccccc4o3)[C@@H]1C2	76 nM	690 nM	–
COc1ccccc1C(=O)N[C@@H]1[C@@H](C/C=C/CCCC(=O)O)C[C@H]2C[C@@H]1C2(C)C	320 nM	4600 nM	–
Cc1cc(C(=O)N[C@@H]2[C@@H](C/C=C/CCCC(=O)O)C[C@H]3C[C@@H]2C3(C)C)cs1	25 nM	13 nM	–
CN(C(=O)c1ccsc1)[C@@H]1[C@@H](C/C=C/CCCC(=O)O)C[C@H]2C[C@@H]1C2(C)C	> 1000 nM	> 10000 nM	–
CC1(C)[C@H]2C[C@H](C/C=C\CCCC(=O)O)[C@@H](NC(=O)c3ccc(-c4ccccc4)cc3)[C@@H]1C2	470 nM	47 nM	inhibition in vivo at 1 mg/kg (Cavia porcellus [8]): 30%
CC1(C)[C@H]2C[C@H](C/C=C\CCCC(=O)O)[C@@H](NS(=O)(=O)c3ccc(-c4ccccc4)cc3)[C@@H]1C2	530 nM	1200 nM	–
CC1(C)[C@H]2C[C@H](C/C=C/CCCC(=O)O)[C@@H](NC(=O)c3ccc4ccccc4c3)[C@@H]1C2	73 nM	–	–
CC1(C)[C@H]2C[C@H](C/C=C/CCCC(=O)O)[C@@H](NC(=O)C3CCCCC3)[C@@H]1C2	> 1000 nM	> 10000 nM	–
CC1(C)[C@H]2C[C@H](C/C=C\CCCC(=O)O)[C@@H](NC(=O)c3ccccc3)[C@@H]1C2	–	–	inhibition in vivo at 1 mg/kg (Cavia porcellus [8]): 52%
CC1(C)[C@H]2C[C@H](C/C=C/CCCC(=O)O)[C@@H](NC(=O)c3cc4ccccc4s3)[C@@H]1C2	390 nM	19 nM	–
CC1(C)[C@H]2C[C@H](C/C=C/CCCC(=O)O)[C@@H](NC(=O)c3ccc(O)cc3)[C@@H]1C2	240 nM	3400 nM	–
CC1(C)[C@H]2C[C@H](C/C=C/CCCC(=O)O)[C@@H](NC(=O)c3c[nH]c4ccccc34)[C@@H]1C2	110 nM	520 nM	–
Cc1scc(C(=O)N[C@@H]2[C@@H](C/C=C/CCCC(=O)O)C[C@H]3C[C@@H]2C3(C)C)c1-c1ccccc1	74 nM	590 nM	–
CC1(C)[C@H]2C[C@H](NS(=O)(=O)c3ccc(-c4ccccc4)cc3)[C@@H](C/C=C\CCCC(=O)O)[C@@H]1C2	> 1000 nM	1300 nM	–
COc1ccc(C(=O)N[C@@H]2[C@@H](C/C=C/CCCC(=O)O)C[C@H]3C[C@@H]2C3(C)C)cc1	190 nM	3900 nM	–
CC1(C)[C@H]2C[C@H](C/C=C/CCCC(=O)O)[C@@H](NC(=O)c3csc4cc(O)ccc34)[C@@H]1C2	18 nM	2.2 nM	inhibition in vivo at 10 mg/kg (Cavia porcellus [2]): 88%
CC1(C)[C@H]2C[C@H](C/C=C/CCCC(=O)O)[C@@H](NC(=O)c3ccc4c(c3)OCO4)[C@@H]1C2	170 nM	2100 nM	–

SMILES	IC50 [1]	IC50 [3]	also measured
CC1(C)[C@H]2C[C@H](C/C=C/CCCC(=O)O)[C@@H](NC(=O)c3cccnc3)[C@@H]1C2	–	330 nM	–
CC1(C)[C@H]2C[C@H](C/C=C/CCCC(=O)O)[C@@H](NC(=O)Cc3ccccc3)[C@@H]1C2	> 1000 nM	> 10000 nM	–
CC1(C)[C@H]2C[C@H](C/C=C/CCCC(=O)O)[C@@H](NC(=O)c3csc4ccc(NS(C)(=O)=O)cc34)[C@@H]1C2	30 nM	7500 nM	–
CC1(C)[C@H]2C[C@H](CC(=O)CCCCC(=O)O)[C@@H](NC(=O)c3ccsc3)[C@@H]1C2	> 1000 nM	> 10000 nM	–
CC1(C)[C@H]2C[C@H](C/C=C\CCCC(=O)O)[C@@H](NC(=O)c3ccc(/N=N/c4ccccc4)cc3)[C@@H]1C2	–	–	inhibition in vivo at 1 mg/kg (Cavia porcellus [8]): 60%
CC1(C)[C@H]2C[C@H](C/C=C/CCCC(=O)O)[C@@H](NC(=O)c3csc4c3CCCC4)[C@@H]1C2	35 nM	150 nM	–
COc1cscc1C(=O)N[C@@H]1[C@@H](C/C=C/CCCC(=O)O)C[C@H]2C[C@@H]1C2(C)C	230 nM	4500 nM	–
CN(C(=O)c1ccccc1)[C@@H]1[C@@H](C/C=C/CCCC(=O)O)C[C@H]2C[C@@H]1C2(C)C	> 1000 nM	> 10000 nM	–
CC1(C)[C@H]2C[C@H](C/C=C/CCCc3nnn[nH]3)[C@@H](NC(=O)c3ccsc3)[C@@H]1C2	93 nM	–	–
CC1(C)[C@H]2C[C@H](C/C=C/CCCC(=O)O)[C@@H](NC(=O)c3cncs3)[C@@H]1C2	500 nM	> 10000 nM	–
CC1(C)[C@H]2C[C@H](C/C=C/CCCC(=O)O)[C@@H](NC(=O)c3cccc4ccsc34)[C@@H]1C2	5.6 nM	26 nM	inhibition in vivo at 10 mg/kg (Cavia porcellus [2]): 70%
CC1(C)[C@H]2C[C@@H](NS(=O)(=O)c3ccc(-c4ccccc4)cc3)[C@H](C/C=C\CCCC(=O)O)[C@@H]1C2	> 1000 nM	1300 nM	–
CC1(C)[C@H]2C[C@H](C/C=C/CCCC(=O)O)[C@@H](NC(=O)c3csc(-c4ccccc4)c3)[C@@H]1C2	100 nM	42 nM	–
CC1(C)[C@H]2C[C@H](C/C=C/CCCC(=O)O)[C@@H](NC(=O)c3ccc([N+](=O)[O-])cc3)[C@@H]1C2	110 nM	4400 nM	–
COc1cc(C(=O)N[C@@H]2[C@@H](C/C=C/CCCC(=O)O)C[C@H]3C[C@@H]2C3(C)C)cs1	56 nM	520 nM	–
Cc1sccc1C(=O)N[C@@H]1[C@@H](C/C=C/CCCC(=O)O)C[C@H]2C[C@@H]1C2(C)C	20 nM	180 nM	–
CC1(C)[C@H]2C[C@H](C/C=C/CCCC(=O)O)[C@@H](NC(=O)c3cccs3)[C@@H]1C2	15 nM	3300 nM	Inhibition (Cavia porcellus [9]): 38%
CC1(C)[C@H]2C[C@H](C/C=C/CCCC(=O)O)[C@@H](NC(=O)c3ccc[nH]3)[C@@H]1C2	37 nM	–	–
CC1(C)[C@H]2C[C@H](C/C=C/CCCC(=O)NS(C)(=O)=O)[C@@H](NC(=O)c3ccsc3)[C@@H]1C2	410 nM	6000 nM	–
CC1(C)[C@H]2C[C@H](C/C=C/CCCC(=O)O)[C@@H](NC(=O)c3ccsc3)[C@@H]1C2	38 nM	1600 nM	Inhibition (Cavia porcellus [5]): 15%; ED50 (Cavia porcellus [6]): 3.5 mg/kg; ED50 (Cavia porcellus [7]): 9.5 mg/kg; Inhibition (Cavia porcellus [10]): 77%
CC1(C)[C@H]2C[C@H](C/C=C/CCCC(=O)O)[C@@H](NC(=O)Cc3ccoc3)[C@@H]1C2	17 nM	560 nM	–
CC1(C)[C@H]2C[C@H](C/C=C/CCCC(=O)O)[C@@H](NC(=O)c3csc4ccc(O)cc34)[C@@H]1C2	0.9 nM	1.9 nM	inhibition in vivo at 3 mg/kg (Cavia porcellus [4]): 64%; Inhibition (Cavia porcellus [5]): 70%; inhibition in vivo at 10 mg/kg (Cavia porcellus [2]): 96%; inhibition in vivo at 10 mg/kg (Cavia porcellus [11]): 80%; ED50 (Cavia porcellus [6]): 0.12 mg/kg; inhibition in vivo at 10 mg/kg (Cavia porcellus [12]): 43%; ED50 (Cavia porcellus [7]): 2 mg/kg
